Data as given in US7387997B2 (University of Utah, priority 2004, dated 2008).
Several values for one entry are separate records, joined by “and”; a condition that tells them apart may be missing. Equal entries are not always repeated. Entries after “also recorded” stand apart in the source; their conditions may differ. Where a SMILES comes first, the peptide text is derived from it. Bridges are numbered along the chain shown (N, C = ends).

Key:
[1] = biological target: T1, α6/α3β4 nAChR (Rattus norvegicus, UniProt P04757+P12392+P43143); assay: cell-based
T1 construct: amino acids 1 to 237 of the rat α6 subunit protein; amino acids 233 to 499 of the rat α3 subunit protein; expressed in transfected cells; host or cells: Xenopus laevis oocytes, cRNA injected

[2] = biological target: T2, rat α3β4 nAChR (Rattus norvegicus, UniProt P04757+P12392); assay: cell-based; assay type: cell-based
T2 construct: expressed in transfected cells; host or cells: Xenopus laevis oocytes, cRNA injected

[3] = biological target: T3, α2β2 nAChR (Rattus norvegicus, UniProt P12389+P12390); assay: cell-based; assay type: cell-based
T3 construct: expressed in transfected cells; host or cells: Xenopus laevis oocytes, cRNA injected

[4] = biological target: T4, Rat α3β2 nAChR (Rattus norvegicus, UniProt P04757+P12390); assay: cell-based; assay type: cell-based
T4 construct: expressed in transfected cells; host or cells: Xenopus laevis oocytes, cRNA injected

[5] = biological target: T5, α6/α3β2 nAChR (Rattus norvegicus, UniProt P04757+P12390+P43143); assay: cell-based
T5 construct: amino acids 1 to 237 of the rat α6 subunit protein; amino acids 233 to 499 of the rat α3 subunit protein; expressed in transfected cells; host or cells: Xenopus laevis oocytes, cRNA injected

[6] = biological target: T6, α2β4 nAChR (Rattus norvegicus, UniProt P12389+P12392); assay: cell-based; assay type: cell-based
T6 construct: expressed in transfected cells; host or cells: Xenopus laevis oocytes, cRNA injected

[7] = biological target: T7, Rat α6/α3β2β3 nAChR (Rattus norvegicus, UniProt P04757+P12390+P43143); assay: cell-based; assay type: cell-based
T7 construct: amino acids 1 to 237 of the rat α6 subunit protein; amino acids 233 to 499 of the rat α3 subunit protein; expressed in transfected cells; host or cells: Xenopus laevis oocytes, cRNA injected (pT7TS/rα6α3 for the chimera)

[8] = biological target: Mouse CNS α-MII Site (putative α6β2* nAChRs); assay type: binding
[9] = biological target: T8, α4β4 nAChR (Rattus norvegicus, UniProt P09483+P12392); assay: cell-based; assay type: cell-based
T8 construct: expressed in transfected cells; host or cells: Xenopus laevis oocytes, cRNA injected

[10] = biological target: T9, α7 nAChR (Rattus norvegicus, UniProt Q05941); assay: cell-based; assay type: cell-based
T9 construct: expressed in transfected cells; host or cells: Xenopus laevis oocytes, cRNA injected

[11] = biological target: T10, α4β2 nAChR (Rattus norvegicus, UniProt P09483+P12390); assay type: cell-based
T10 construct: expressed in transfected cells; host or cells: Xenopus laevis oocytes, cRNA injected

[12] = biological target: T11, rat α6β4 nAChR (Rattus norvegicus, UniProt P12392+P43143); assay type: cell-based
T11 construct: expressed in transfected cells; host or cells: Xenopus laevis oocytes, cRNA injected (50 ng each)
T11 sequence (P43143 31-493): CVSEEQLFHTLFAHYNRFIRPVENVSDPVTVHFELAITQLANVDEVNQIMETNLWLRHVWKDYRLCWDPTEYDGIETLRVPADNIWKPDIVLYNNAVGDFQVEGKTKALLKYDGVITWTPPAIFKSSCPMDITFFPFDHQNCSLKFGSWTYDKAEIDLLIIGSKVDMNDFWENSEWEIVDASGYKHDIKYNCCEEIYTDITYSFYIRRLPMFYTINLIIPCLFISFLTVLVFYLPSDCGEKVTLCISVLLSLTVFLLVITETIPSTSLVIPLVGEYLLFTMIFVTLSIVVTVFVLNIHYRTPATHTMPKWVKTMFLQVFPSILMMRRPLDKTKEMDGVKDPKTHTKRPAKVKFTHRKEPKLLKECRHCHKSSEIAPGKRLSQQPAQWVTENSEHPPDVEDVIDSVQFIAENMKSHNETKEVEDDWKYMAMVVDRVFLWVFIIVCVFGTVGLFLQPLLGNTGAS
T11 sequence (P12392 21-495): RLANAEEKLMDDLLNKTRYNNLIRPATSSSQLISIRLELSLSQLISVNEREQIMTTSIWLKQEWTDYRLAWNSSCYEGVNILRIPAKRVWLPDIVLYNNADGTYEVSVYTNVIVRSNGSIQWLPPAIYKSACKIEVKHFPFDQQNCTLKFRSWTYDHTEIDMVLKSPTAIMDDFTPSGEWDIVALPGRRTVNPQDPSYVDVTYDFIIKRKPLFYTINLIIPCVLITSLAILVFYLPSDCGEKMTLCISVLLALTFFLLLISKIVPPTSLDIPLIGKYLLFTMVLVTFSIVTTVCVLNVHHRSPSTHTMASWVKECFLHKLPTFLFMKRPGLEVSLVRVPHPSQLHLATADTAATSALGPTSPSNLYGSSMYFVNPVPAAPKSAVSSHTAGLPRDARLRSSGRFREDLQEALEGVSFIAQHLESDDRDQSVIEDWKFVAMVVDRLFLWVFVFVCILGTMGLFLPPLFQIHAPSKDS

T10 sequence (P09483 31-630 limits assumed): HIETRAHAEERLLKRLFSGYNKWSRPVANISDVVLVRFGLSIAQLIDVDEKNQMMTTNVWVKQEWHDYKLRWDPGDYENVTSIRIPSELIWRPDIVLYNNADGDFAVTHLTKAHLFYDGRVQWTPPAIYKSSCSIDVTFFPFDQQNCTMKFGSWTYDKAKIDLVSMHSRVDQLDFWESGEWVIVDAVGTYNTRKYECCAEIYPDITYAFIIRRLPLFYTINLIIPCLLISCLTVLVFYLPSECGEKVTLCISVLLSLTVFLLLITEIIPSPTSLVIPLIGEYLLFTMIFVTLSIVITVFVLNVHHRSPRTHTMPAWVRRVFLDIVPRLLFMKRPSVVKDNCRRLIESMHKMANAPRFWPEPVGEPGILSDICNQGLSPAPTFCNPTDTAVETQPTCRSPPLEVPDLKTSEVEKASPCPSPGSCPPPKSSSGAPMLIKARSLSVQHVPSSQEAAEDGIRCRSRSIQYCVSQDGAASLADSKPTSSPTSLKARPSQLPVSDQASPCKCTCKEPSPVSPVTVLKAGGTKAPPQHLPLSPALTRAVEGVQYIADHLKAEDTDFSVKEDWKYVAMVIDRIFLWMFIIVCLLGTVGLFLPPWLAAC
T10 sequence (P12390 25-500 limits assumed): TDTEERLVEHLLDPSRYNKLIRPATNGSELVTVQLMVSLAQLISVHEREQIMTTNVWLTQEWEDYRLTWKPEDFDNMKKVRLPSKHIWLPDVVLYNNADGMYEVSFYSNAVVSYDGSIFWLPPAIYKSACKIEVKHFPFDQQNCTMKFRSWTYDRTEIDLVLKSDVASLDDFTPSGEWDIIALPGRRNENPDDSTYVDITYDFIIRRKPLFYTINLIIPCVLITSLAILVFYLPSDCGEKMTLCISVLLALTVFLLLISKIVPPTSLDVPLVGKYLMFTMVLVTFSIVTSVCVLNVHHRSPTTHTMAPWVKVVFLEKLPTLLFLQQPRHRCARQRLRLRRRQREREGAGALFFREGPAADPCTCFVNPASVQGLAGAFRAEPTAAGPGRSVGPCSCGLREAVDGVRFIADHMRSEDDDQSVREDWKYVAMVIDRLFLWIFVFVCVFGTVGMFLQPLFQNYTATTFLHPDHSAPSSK
T8 sequence (P09483 31-630 limits assumed): as the sequence (P09483 31-630 limits assumed) above
T8 sequence (P12392 21-495 limits assumed): as the sequence (P12392 21-495) above
T9 sequence (Q05941 23-502 limits assumed): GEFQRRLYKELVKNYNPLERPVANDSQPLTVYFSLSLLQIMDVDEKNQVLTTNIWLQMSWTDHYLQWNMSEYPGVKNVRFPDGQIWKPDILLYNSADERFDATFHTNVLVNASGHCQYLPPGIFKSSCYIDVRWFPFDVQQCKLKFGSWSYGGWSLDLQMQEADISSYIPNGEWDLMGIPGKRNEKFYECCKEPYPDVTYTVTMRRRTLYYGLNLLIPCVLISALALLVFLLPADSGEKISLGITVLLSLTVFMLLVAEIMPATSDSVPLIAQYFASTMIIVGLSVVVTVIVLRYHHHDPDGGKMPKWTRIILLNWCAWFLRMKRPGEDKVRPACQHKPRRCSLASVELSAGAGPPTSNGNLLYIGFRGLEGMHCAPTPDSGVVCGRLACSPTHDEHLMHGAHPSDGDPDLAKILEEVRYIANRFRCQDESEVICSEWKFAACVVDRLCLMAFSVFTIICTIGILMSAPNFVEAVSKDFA
T2 sequence (P04757 26-499 limits assumed): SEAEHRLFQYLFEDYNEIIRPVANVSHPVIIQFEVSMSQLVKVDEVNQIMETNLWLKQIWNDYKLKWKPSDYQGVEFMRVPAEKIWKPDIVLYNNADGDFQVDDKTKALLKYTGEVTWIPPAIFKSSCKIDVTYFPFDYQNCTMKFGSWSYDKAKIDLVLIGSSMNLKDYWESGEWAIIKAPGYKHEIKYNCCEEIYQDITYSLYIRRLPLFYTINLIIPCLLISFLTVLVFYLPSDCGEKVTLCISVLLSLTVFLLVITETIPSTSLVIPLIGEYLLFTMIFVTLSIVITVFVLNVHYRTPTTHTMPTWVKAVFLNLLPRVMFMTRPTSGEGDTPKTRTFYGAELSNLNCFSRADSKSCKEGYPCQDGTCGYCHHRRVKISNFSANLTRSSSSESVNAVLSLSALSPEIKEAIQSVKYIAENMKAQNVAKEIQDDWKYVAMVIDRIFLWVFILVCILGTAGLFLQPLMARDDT
T2 sequence (P12392 21-495 limits assumed): as the sequence (P12392 21-495) above
T4 sequence (P04757 26-499 limits assumed): as the sequence (P04757 26-499 limits assumed) above
T4 sequence (P12390 25-500 limits assumed): as the sequence (P12390 25-500 limits assumed) above
T6 sequence (P12389 28-511 limits assumed): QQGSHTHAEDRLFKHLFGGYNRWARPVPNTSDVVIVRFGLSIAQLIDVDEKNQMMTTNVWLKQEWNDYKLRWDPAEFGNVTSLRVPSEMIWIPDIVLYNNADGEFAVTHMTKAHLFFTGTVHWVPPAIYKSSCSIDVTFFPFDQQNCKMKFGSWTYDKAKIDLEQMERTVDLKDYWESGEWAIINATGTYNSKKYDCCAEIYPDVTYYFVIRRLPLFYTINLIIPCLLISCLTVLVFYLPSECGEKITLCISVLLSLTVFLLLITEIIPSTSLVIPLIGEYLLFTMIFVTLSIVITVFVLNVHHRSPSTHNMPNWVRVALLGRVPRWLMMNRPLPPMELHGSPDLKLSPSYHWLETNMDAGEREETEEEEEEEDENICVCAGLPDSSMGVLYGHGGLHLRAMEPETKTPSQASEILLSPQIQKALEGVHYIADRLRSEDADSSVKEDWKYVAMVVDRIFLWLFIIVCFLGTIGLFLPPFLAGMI
T6 sequence (P12392 21-495 limits assumed): as the sequence (P12392 21-495) above
T3 sequence (P12389 28-511 limits assumed): as the sequence (P12389 28-511 limits assumed) above
T3 sequence (P12390 25-500 limits assumed): as the sequence (P12390 25-500 limits assumed) above
T5 sequence (P43143 31-237 limits assumed): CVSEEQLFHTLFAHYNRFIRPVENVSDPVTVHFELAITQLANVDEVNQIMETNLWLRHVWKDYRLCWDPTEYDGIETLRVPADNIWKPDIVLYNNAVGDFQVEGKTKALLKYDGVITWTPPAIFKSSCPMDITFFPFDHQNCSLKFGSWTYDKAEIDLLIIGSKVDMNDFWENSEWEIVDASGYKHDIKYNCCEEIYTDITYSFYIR
T5 sequence (P04757 233-499 limits assumed): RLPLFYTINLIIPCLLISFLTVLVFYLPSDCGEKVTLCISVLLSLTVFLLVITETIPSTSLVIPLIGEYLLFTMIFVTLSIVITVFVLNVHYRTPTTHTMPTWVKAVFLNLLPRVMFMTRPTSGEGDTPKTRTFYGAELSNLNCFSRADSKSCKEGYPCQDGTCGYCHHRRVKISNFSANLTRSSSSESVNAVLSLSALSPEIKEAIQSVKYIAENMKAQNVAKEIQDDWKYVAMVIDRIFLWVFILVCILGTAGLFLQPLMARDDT
T5 sequence (P12390 25-500 limits assumed): as the sequence (P12390 25-500 limits assumed) above
T7 sequence (P43143 31-237 limits assumed): as the sequence (P43143 31-237 limits assumed) above
T7 sequence (P04757 233-499 limits assumed): as the sequence (P04757 233-499 limits assumed) above
T7 sequence (P12390 25-500 limits assumed): as the sequence (P12390 25-500 limits assumed) above
T1 sequence (P43143 31-237 limits assumed): as the sequence (P43143 31-237 limits assumed) above
T1 sequence (P04757 233-499 limits assumed): as the sequence (P04757 233-499 limits assumed) above
T1 sequence (P12392 21-495): as the sequence (P12392 21-495) above

CC(C)C[C@@H]1NC(=O)[C@H](Cc2c[nH]cn2)NC(=O)[C@@H]2CSSC[C@H](NC(=O)CN)C(=O)N[C@@H](CSSC[C@@H](C(N)=O)NC(=O)[C@H](CC(C)C)NC(=O)[C@H](CC(N)=O)NC(=O)[C@H](CO)NC(=O)[C@H](Cc3c[nH]cn3)NC(=O)[C@H](C)NC1=O)C(=O)N[C@@H](CO)C(=O)N[C@@H](CC(N)=O)C(=O)N1CCC[C@H]1C(=O)N[C@@H](C(C)C)C(=O)N2 [MII[E11A]] (H-GCCSNPVCHLAHSNLC-NH2; disulfide 2-8, 3-16)
IC50 [1]: 6.44 nM | Ratio nAChR subtype IC50/α6/α3β2β3 IC50, α6/α3β4 [1]: 40.3 | IC50 [2]: 2100 nM | Ratio nAChR subtype IC50/α6/α3β2β3 IC50, α3β4 [2]: 13,100 | IC50 [3]: > 10000 nM | Ratio nAChR subtype IC50/α6/α3β2β3 IC50, α2β2 [3]: >62,500 | IC50 [4]: 8.72 nM | Ratio IC50 α3β2/IC50 α6/α3β2β3 [4]: 54.5 | IC50 [5]: 0.154 nM | Ratio nAChR subtype IC50/α6/α3β2β3 IC50, α6/α3β2 [5]: 0.962 | IC50 [6]: > 10000 nM | Ratio nAChR subtype IC50/α6/α3β2β3 IC50, α2β4 [6]: >62,500 | IC50 [7]: 0.16 nM | Ratio nAChR subtype IC50/α6/α3β2β3 IC50, α6/α3β2β3 [7]: 1.00 | Ki [8]: 0.27 nM | IC50 [9]: > 10000 nM | Ratio nAChR subtype IC50/α6/α3β2β3 IC50, α4β4 [9]: >62,500 | IC50 [10]: 1050 nM | Ratio nAChR subtype IC50/α6/α3β2β3 IC50, α7 [10]: 6,570

CC(C)C[C@@H]1NC(=O)[C@H](C)NC(=O)[C@@H]2CSSC[C@H](NC(=O)CN)C(=O)N[C@@H](CSSC[C@@H](C(N)=O)NC(=O)[C@H](C)NC(=O)[C@H](CC(N)=O)NC(=O)[C@H](CO)NC(=O)[C@H](Cc3c[nH]cn3)NC(=O)[C@H](CCC(=O)O)NC1=O)C(=O)N[C@@H](CO)C(=O)N[C@@H](CC(N)=O)C(=O)N1CCC[C@H]1C(=O)N[C@@H](C(C)C)C(=O)N2 [MII[H9A; L15A]] (H-GCCSNPVCALEHSNAC-NH2; disulfide 2-8, 3-16)
Hill slope (nH), α3β4 [2]: 0.75±0.1 | activity at α3β4 (in words) [2]: low or no activity; also recorded: little or no activity | ACh response, percentage of control, Rα2β2 [3]: 102 ± 1.4 % of control and 103 ± 1.9 % of control | activity at α2β2 (in words) [3]: low or no activity; also recorded: little or no activity | Hill slope, α3β2 [4]: 0.48±0.04 | ACh response, percentage of control, Rα4β2 [11]: 98.5 ± 4.4 % of control and 101 ± 2.5 % of control | activity at α4β2 (in words) [11]: low or no activity; also recorded: little or no activity | ACh response, percentage of control, Rα2β4 [6]: 96.7 ± 3.2 % of control and 95.9 ± 2.3 % of control | activity at α2β4 (in words) [6]: low or no activity; also recorded: little or no activity | Ki [8]: 3.3 nM | ACh response, percentage of control, Rα4β4 [9]: 99.0 ± 4.0 % of control and 100 ± 5.6 % of control | activity at α4β4 (in words) [9]: low or no activity; also recorded: little or no activity | ACh response, percentage of control, Rα7 [10]: 61.4 ± 2.3 % of control and 100 ± 1.5 % of control | activity at α7 (in words) [10]: low or no activity; also recorded: little or no activity | Hill slope (nH), α6β4 [12]: 0.60±0.09
